From ChEMBL document CHEMBL1137579, “Discovery of 1-[2-[(1S)-(3-dimethylaminopropionyl)amino-2-methylpropyl]-4-methylphenyl]-4-[(2R)-methyl-3-(4-chlorophenyl)-propionyl]piperazine as an orally active antagonist of the melanocortin-4 receptor for the potential treatment of cachexia” (J Med Chem, 2007)

What was measured:
[1] = system: Caco-2; assay: Permeability across Caco-2 cell membrane; assay type: ADME, cell-based; settings: human
[2] = Drug level in rat brain at 10 mg/kg, po after 4 hrs; assay type: ADME, organism-based; parameters: dose 10 mg/kg, route oral; settings: read-out: Drug uptake
[3] = target: Melanocyte-stimulating hormone receptor (Homo sapiens) (UniProt Q01726); assay: Displacement of [125I]NDP-MSH from human MC1R
[4] = Tmax in rat at 2.5 mg/kg, iv or 10 mg/kg, po; assay type: ADME, organism-based; settings: in vivo
[5] = Drug level in rat brain at 10 mg/kg, po after 1 hr; assay type: ADME, organism-based; parameters: dose 10 mg/kg, route oral; settings: read-out: Drug uptake
[6] = Cmax in rat at 2.5 mg/kg, iv or 10 mg/kg, po; assay type: ADME, organism-based; settings: in vivo
[7] = Oral bioavailability in rat at 10 mg/kg, po; assay type: ADME, organism-based; settings: in vivo
[8] = AUC in rat at 10 mg/kg, po; assay type: ADME, organism-based; parameters: dose 10 mg/kg, route oral; settings: plasma
[9] = Volume of distribution in rat at 2.5 mg/kg, iv or 10 mg/kg, po; assay type: ADME, organism-based; settings: in vivo
[10] = target: Melanocortin receptor 4 (Homo sapiens) (UniProt P32245); assay: Activity at MC4R expressed in HEK293 cells assessed as stimulation of cAMP release at 10 uM relative to alpha-MSH; assay type: functional, cell-based
[11] = Plasma clearance in rat at 5 mg/kg, iv
[12] = Half life in rat at 2.5 mg/kg, iv or 10 mg/kg, po; assay type: ADME, organism-based; settings: in vivo

Melanocortin receptor 4 (Homo sapiens), sequence (P32245 whole entry): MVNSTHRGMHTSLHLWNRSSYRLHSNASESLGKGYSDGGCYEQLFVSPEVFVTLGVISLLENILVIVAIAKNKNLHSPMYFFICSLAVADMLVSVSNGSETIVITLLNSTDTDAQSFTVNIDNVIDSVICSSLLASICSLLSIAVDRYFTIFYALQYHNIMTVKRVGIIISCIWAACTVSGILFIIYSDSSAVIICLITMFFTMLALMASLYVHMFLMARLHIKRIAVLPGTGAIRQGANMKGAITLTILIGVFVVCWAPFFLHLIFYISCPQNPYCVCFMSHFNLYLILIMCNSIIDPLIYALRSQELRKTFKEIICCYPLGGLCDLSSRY
Melanocyte-stimulating hormone receptor (Homo sapiens), sequence (Q01726 whole entry, looked up): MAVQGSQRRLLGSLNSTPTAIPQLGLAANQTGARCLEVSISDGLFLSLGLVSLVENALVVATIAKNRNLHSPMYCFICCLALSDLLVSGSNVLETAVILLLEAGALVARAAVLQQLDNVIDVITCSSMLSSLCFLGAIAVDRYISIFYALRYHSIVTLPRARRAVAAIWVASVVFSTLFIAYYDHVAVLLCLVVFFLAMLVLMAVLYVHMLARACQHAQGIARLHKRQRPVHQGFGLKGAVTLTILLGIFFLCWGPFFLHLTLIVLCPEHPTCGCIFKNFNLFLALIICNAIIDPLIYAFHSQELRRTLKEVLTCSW

Row | permeability [1] | concentration at 4 h [2] [ng/g] | Activity [3] [%] | Tmax [4] [h] | concentration at 1 h [5] [ng/g] | Cmax [6] [ng/mL] | bioavailability [7] [%] | AUC [8] [ng·h/mL] | Vd [9] [L/kg] | Activity [10] [%] | clearance [11] [mL/min/kg] | half-life [12] [h] | Compound
1 | 1.2 10^-6 cm/s | < 5 | 43 | 3.3 | < 5 | 57 | 15 | 563 | 20 | – | – | – | CNCCC(=O)N[C@H](c1cc(C)ccc1N1CCN(C(=O)[C@H](C)Cc2ccc(Cl)cc2)CC1)C(C)C
2 | 0.3 10^-6 cm/s | – | 42 | – | – | – | – | – | – | – | – | – | Cc1ccc(N2CCN(C(=O)[C@H](C)Cc3ccc(Cl)cc3)CC2)c([C@@H](NC(=O)CCN)C(C)C)c1
3 | – | – | – | – | – | – | – | – | – | 5 | – | – | Cc1ccc(N2CCN(C(=O)[C@H](C)Cc3ccc(Cl)cc3F)CC2)c([C@@H](N)C(C)C)c1
4 | 0.3 10^-6 cm/s | < 5 | – | 6 | < 5 | 22 | 13 | 299 | 95 | 7 | 60 | 17 | CNCCN[C@H](c1cc(C)ccc1N1CCN(C(=O)[C@H](C)Cc2ccc(Cl)cc2F)CC1)C(C)C
5 | – | 31 | – | 4.7 | 8 | 134 | 13 | 1470 | 4.2 | – | – | – | Cc1ccc(N2CCN(C(=O)[C@H](C)Cc3ccc(Cl)cc3F)CC2)c([C@@H](NC(=O)CCN(C)C)C(C)C)c1
